From patent EP1285918A1, “C7 Ester substituted taxanes as antitumor agents” (Florida State University Research Foundation, Inc., priority 2001, dated 2003) come the findings set out here.

One data set has as its system HCT116. The experiment in a line: In Vitro cytotoxicity measured by the cell colony formation assay. The data set is classed as cell-based. As to conditions: Homo sapiens, HCT-116; 72 h drug incubation, colonies counted after 7 days; concentration producing 50% inhibition of colony formation; read-out: IN VITRO ID 50 (nm) HCT116.
For data set [1], the system named is MX-1 Human Breast Carcinoma Xenograft. The experiment in a line: In vivo evaluation of oral administration of antitumor compounds against MX-1 human breast carcinoma xenograft (Example 25). The text has this:
This study investigated the efficacy of various antitumor compounds when administered orally against the MX-1 human breast carcinoma xenograft.
(§1) The study was terminated on Day 63.

The test system of a further data set is blood cell populations. Put plainly: Effect of oral treatment on blood cell populations, body weight and tumor weight in MX-1 bearing mice (Example 25, Table 23). In kind it is in vivo, nu/nu mice. The conditions noted are these: 233 mg/kg single oral bolus. Here is the method:
as §1
In addition to survival and tumor regression responses, the effect of treatment on blood cell populations was assessed. The major effect of these antitumor compounds on blood cell populations was a marked reduction in the neutrophil cell number. As well, monocyte depletion correlated fairly well with neutrophil reduction for each antitumor compound. […] There was a correlation between antitumor activity and reduced neutrophil count. In general, toxicity (as determined by neutrophil depletion) and weight loss correlated with efficacy. Importantly, the toxicities observed with the very efficacious antitumor compounds were manageable and reversible; neutrophil count and body weight rebounded from their low points in just a few days. Table 23 summarizes the weight reduction, neutrophil and monocyte measurements on Day 4, with tumor weight reduction calculated at Day 18: Table 23

[2] abbreviates: 233 mg/kg single oral bolus, 6 mice/group, study end Day 63.

Some results are limits rather than exact numbers.

Regarding `CCC(=O)O[C@H]1C[C@H]2OC[C@@]2(OC(C)=O)[C@H]2[C@H](OC(=O)c3ccccc3)[C@]3(O)C[C@H](OC(=O)[C@H](O)[C@@H](NC(=O)OC(C)(C)C)c4ccccc4)C(C)=C([C@@H](O)C(=O)[C@]12C)C3(C)C` [Compound 1458], the IC50 in the data set on HCT116 was under 10 nM. Also, in data set [1] (233 mg/kg single oral bolus, 6 mice/group, on Day 5), the “Maximum Weight Loss (Day)” value is on record as -5.8% (5). Further, in data set [1] (setting [2]), the “Partial Response” value was 0, the “Stable Disease” value was 0 and the “Toxic Deaths” value was 0. Also, in data set [1] (233 mg/kg single oral bolus, 6 mice/group, study end Day 63, days until tumor reached 1.5 g), the “Mean Day of Survival (n)” value was 46.0 ± 1.6 (5) days. Moreover, the “survival compared to vehicle control mice” value in data set [1] (MX-1, single oral bolus, doses of Table 22, Day 63) is on record as “significant survival extensions”. The “Complete Response” value in data set [1] (po, 233 mg/kg, 1512 h) was determined as 1. In the data set on blood cell populations (Day 4), the “Monocytes (K/µL)” value was found to be 0.057 K/µL and the “Neutrophils (K/µL)” value worked out at 0.232 K/µL. In addition, the “% Reduction” value with blood cell populations (reduction of monocytes, Day 4) worked out at 40.6%. In addition, the “% Reduction” value in the data set on blood cell populations (reduction of neutrophils, Day 4) was 74.5%. Further, in the data set with blood cell populations (reduction of tumor weight at Day 18), the “% Reduction” value is recorded as 97.5%. Moreover, the “Weight” value in the data set with blood cell populations (tumor weight at Day 18) amounted to 21.8 mg.
